{"source": "paper PMC7738871", "about": "“Covalent modification of Keap1 at Cys77 and Cys434 by pubescenoside a suppresses oxidative stress-induced NLRP3 inflammasome activation in myocardial ischemia-reperfusion injury” (Theranostics, 2021)", "key": {"[1]": {"system": "OGD/R-induced primary mouse cardiomyocytes", "experiment": "OGD/R-induced injury, MTT viability, primary cardiomyocytes", "format": "cell-based", "settings": "10 and 30 μM, OGD 3 h, reperfusion 18 h", "experimental": "The heart was removed from the neonatal C57BL/6 mice and cut into 1 mm^3 pieces in ice […] buffer. The tissues were digested with the mixture of 0.125% trypsin (Gibco, 15090-046) and 0.1% type II collagenase (Gibco, 17101-015) 6 min at 37 °C for three times until the tissues were completely digested. The cells were harvested and seeded in a dish. After 90 min of incubation, the cell culture medium was collected and centrifuged. The centrifuged cardiomyocytes were harvested, seeded on 0.1 % gelatin-coated culture plates with DMEM containing 10% FBS and […] Brdu, and incubated in a 37°C incubator.\nCell viability was determined by MTT assays. PBA was prepared to a stock solution dissolved in dimethyl sulfoxide (DMSO). RAW264.7, H9c2 cells, primary mouse cardiomyocytes were treated with different doses of PBA, and DMSO only as control for 48 h for the toxicity. In addition, H9c2 cells or primary mouse cardiomyocytes were treated with the indicated doses of PBA, diazoxide as positive control, DMSO only as control, then cultured with or without OGD/R treatment. At the end of the experiments, MTT was added into each well at the concentration of 0.5 mg/ml, and incubated at 37 °C for 4 h. […] And the solution was measured at the absorbance of 490 nm by a spectrophotometer (Thermo Fisher Scientific, MA, USA). […]"}, "Nrf2": {"system": "Nrf2", "experiment": "Nrf2 expression in cardiomyocytes under OGD/R", "format": "cell-based", "settings": "cardiomyocytes under OGD/R condition", "experimental": "(§1) Total protein was isolated from H9c2 cells, primary mouse cardiomyocytes, RAW264.7 cells and heart tissue using 1X RIPA buffer containing phosphatase and proteinase inhibitors at 4 °C. After measurement of the concentration, the cell lysates were separated by sodium dodecyl sulphate polyacrylamide gel electrophoresis (SDS-PAGE) and transferred to polyvinylidene fluoride (PVDF) membranes. The membranes were blocked in Tris-buffered saline-Tween 20 (TBST) buffer with 5% BSA for 1 h and incubated with primary antibodies (1:1000 dilution) overnight at 4 °C. After the membranes was washed by TBST buffer for three times, they were incubated with horseradish peroxidase (HRP)-conjugated secondary mouse or rabbit antibodies (1:3,000 dilution) at room temperature (RT) for 1.5 h and then detected by SuperEnhanced chemiluminescence (ECL) reaction reagents (GBCBIO Technologies Inc., Guangzhou, Guangdong, China). In brief, drop evenly the ECL working liquid onto the membrane at the ratio of 1 mL ECL working liquid and 10 cm^2 of membrane. After letting the membranes stand for 1-2 min, the bands of the respective proteins were detected with the exposure time of 10 ~60 s."}, "[2]": {"system": "T1, interaction between Keap1 and Nrf2", "T1 construct": "expressed in transfected cells; host or cells: 293T", "experiment": "Co-IP of Keap1 and Nrf2 in 293T cells", "format": "cell-based, human", "experimental": "Figure 6 PBA suppresses Keap1-mediated ubiquitination of Nrf2 by disrupting the interaction between Cul3 and Keap1. (A and B) PBA suppressed Nrf2 ubiquitination in a Keap1-Cys77 and C434-dependent manner. First, 293T cells were transfected with WT-Keap1 or C77S and C434S-Keap1, Myc-Nrf2, and Ub plasmids for 24 h and treated with 30 μM PBA. The cell lysates were immunoprecipitated using anti-Myc beads, and the ubiquitination level was evaluated using the anti-Ub antibody. (C and D) PBA induced the dissociation of the Nrf2-Keap1 complex. Then, 293T cells were cotransfected with WT-Keap1 and Flag-Nrf2 plasmids for 24 h and treated with 30 μM PBA for 12 h. The cell lysates were immunoprecipitated with the anti-Flag antibody, and the level of Nrf2 was assessed using the anti-Nrf2 antibody. (E and F) PBA disrupted the interaction between Cul3 and Keap1. The 293T cells were transfected with the WT-Keap1 or C77S-C434S-Keap1 plasmids for 24 h and treated with 30 μM PBA for 12 h. The cell lysates were immunoprecipitated with the anti-Flag antibody, and the level of Cul3 was measured using the anti-Cul3 antibody. #p < 0.05, ##p < 0.01, ###p < 0.001, the control vs DMSO; *p < 0.05,**p < 0.01, ***p < 0.001, PBA or tBHQ vs DMSO. […] Primary mouse cardiomyocytes were transfected with mouse WT-Keap1 or C77S and C434S-Keap1 mutant vectors. After 24 h, the cells were treated with the indicated doses of PBA and subjected to OGD conditions as described in the Method section for 3 h and under normal conditions for another 18 h. Cell viability was measured by MTT assays. #p < 0.05, ###p < 0.001, the control vs OGD/R; **p < 0.01, ***p < 0.001, OGD/R+PBA vs OGD/R.\nTo investigate the effect of PBA on the interaction of Keap1 and Nrf2, we transfected 293T cells with Flag-Keap1 and Myc-Nrf2 plasmids, and treated them with 30 μM PBA for 24 h. The protein expression of Nrf2 was measured by western blotting analysis followed by immunoprecipitation with Flag beads."}, "ROS in RAW264.7 cells": {"system": "ROS in RAW264.7 cells", "experiment": "Intracellular ROS (DCFH-DA), LPS plus ATP macrophages", "format": "cell-based", "experimental": "The fluorescent probe DCFH-DA was used to measure intracellular ROS levels. RAW264.7 cells were treated with 100 μg/mL LPS plus ATP as mentioned above. H9c2 cells underwent OGD/R. After the appropriate treatment, the cells were incubated with DCFH-DA at a concentration of 10 μM for 30 min. The cells were washed with PBS three times. A fluorescence microscope and microplate reader were used to measure the level of DCFH-DA fluorescence at the excitation wavelength of 488 nm and the emission wavelength of 525 nm."}, "NLRP3 inflammasome": {"system": "NLRP3 inflammasome", "experiment": "OGD/R-induced NLRP3 inflammasome activation in H9c2", "format": "cell-based, rat", "settings": "H9c2, OGD 6 h, reperfusion 18 h, dose-dependent", "experimental": "For OGD/R treatment, H9c2 cells were washed twice with phosphate buffered saline (PBS). The medium was changed to glucose and serum free DMEM, and H9c2 cells were incubated in an incubator with 95% N2 and 5% CO2 at 37 °C. After 6 h, the medium was replaced with DMEM containing 10% FBS and 1% PS. Then H9c2 cells were returned to a normal incubator with 5% CO2 balanced with air at 37 °C for the indicated time.\nas §1, with “The membranes were blocked in Tris-buffered saline-Tween 20 (TBST) buffer with 5% BSA for 1 h and incubated with primary antibodies (1:1000 dilution) overnight at 4 °C.” left out, “In brief, drop evenly the ECL working liquid onto the membrane at the ratio of 1 mL ECL working liquid and 10 cm^2 of membrane.” left out"}}, "note": "“Also recorded” adds a separate entry of the source.", "data": [{"smiles": "C=C(COC(=O)C=Cc1ccc(O)c(O)c1)C(O)COC1OC(CO)C(O)C(O)C1O", "note": "(stereo not drawn) [PBA, pubescenoside A]", "values": [{"measurement": "protection against OGD/R induced injury (cell viability, MTT)", "setting": "[1]", "result": "protected"}, {"measurement": "Nrf2 expression", "setting": "Nrf2", "result": "strongly induced"}, {"measurement": "Keap1-Nrf2 complex with mutant Keap1 (Co-IP)", "setting": "[2]; Cys77S and Cys434S-Keap1 mutant vectors", "result": "unable to block"}, {"measurement": "interaction between Keap1 and Nrf2 (Co-IP)", "setting": "[2]; WT-Keap1, 30 μM PBA", "result": "significantly disturbed; also recorded: disrupted"}, {"measurement": "LPS plus ATP-induced ROS", "setting": "ROS in RAW264.7 cells", "result": "significantly suppress"}, {"measurement": "OGD/R-induced inflammasome activation (NLRP3, cleaved-caspase1, mature IL-1β)", "setting": "NLRP3 inflammasome", "result": "substantially inhibited"}]}]}
